These results are taken from patent publication US12331035B2, “Bicyclic compound and use thereof” (SK BIOPHARMACEUTICALS CO., LTD., priority 2019, dated 2025).

Experiment [1] concerns the target T1, PRMT5-MEP50 enzyme complex (Homo sapiens, UniProt O14744).
T1 construct: purchased BPS Bioscience (USA) 51045
Nature of the experiment: In vitro PRMT5 enzyme activity assay (methylation of histone H4 arginine H4R3, ELISA absorbance at 450 nm). It is filed as biochemical. To be noted: S-adenosylmethionine, histone H4 peptide, 2 hours at room temperature, 8 points 10 μM to 0.128 nM. The gist of the method:
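Human PRMT5-MEP50 (5 μg/mL working stock) with 2 μM SAM stock on histone H4 (1-20) peptide-coated plates, compound 8-point 1:5 series from 10 μM, 2 h at room temperature. H4R3 methylation detected by antibody/HRP ELISA, absorbance 450 nm; IC50 calculated.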

The next experiment relates to SDMA levels in the tumor. Nature of the experiment: Test for in vivo target inhibitory activity (SDMA levels in U87MG tumor). The settings on record: U87MG tumor cells implanted subcutaneously in nude mice, oral 25 or 50 mg/kg 1-2 times daily for one week. As for the experimental part:
Test for In Vivo Target Inhibitory Activity
After U87MG tumor cells were implanted subcutaneously in nude mice, a PRMT5 inhibitor was administered orally (25 or 50 mg/kg) 1-2 times daily for one week, and then the degree to which SDMA levels in the tumor decreased was measured.
Reagents: Bradford's solution (Catalog No. 500-0006) was purchased from Bio-rad (USA). SDMA antibody (Catalog No. 13222s) was purchased from Cell Signaling Technology (USA). SmD3 antibody (Catalog No. ap12451a) was purchased from Abgent (USA), and secondary antibody (Catalog No. ab6721) and TMB substrate (Catalog No. ab210902) were purchased from Abcam (UK).
Experimental procedure: The tumor tissues transplanted into the mice were excised, the cells were lysed, and then quantified with Bradford's solution. 5-10 μg of protein per sample was diluted with carbonate-bicarbonate buffer and dispensed into a 96-well plate and reacted at room temperature for 2 hours. After washing with phosphate buffered saline (PBST) containing 0.05% Tween-20 3 times, 200 μL of PBST containing 5% bovine serum albumin (BSA-PBST) was added and reacted at room temperature for 2 hours. After washing with PBST 3 times, the SDMA antibody and the SmD3 antibody were diluted in BSA-PBST, and 100 μL of each was dispensed onto the plate and reacted at 4° C. overnight. After washing with PBST 3 times the next day, 100 μL of the secondary antibody diluted in BSA-PBST was added and reacted at room temperature for 1 hour. After washing with PBST 3 times, 100 μL of TMB substrate was added and reacted at room temperature for 10-20 minutes, and 100 μL of 1N sulfuric acid solution was added to terminate the reaction. Then, the absorbance at 450 nm was measured to calculate the degree of SDMA inhibition by the compound. (+++: more than 70%, ++: more than 30% and 70% or less, +: 30% or less)

T1 sequence (O14744 2-637 limits assumed): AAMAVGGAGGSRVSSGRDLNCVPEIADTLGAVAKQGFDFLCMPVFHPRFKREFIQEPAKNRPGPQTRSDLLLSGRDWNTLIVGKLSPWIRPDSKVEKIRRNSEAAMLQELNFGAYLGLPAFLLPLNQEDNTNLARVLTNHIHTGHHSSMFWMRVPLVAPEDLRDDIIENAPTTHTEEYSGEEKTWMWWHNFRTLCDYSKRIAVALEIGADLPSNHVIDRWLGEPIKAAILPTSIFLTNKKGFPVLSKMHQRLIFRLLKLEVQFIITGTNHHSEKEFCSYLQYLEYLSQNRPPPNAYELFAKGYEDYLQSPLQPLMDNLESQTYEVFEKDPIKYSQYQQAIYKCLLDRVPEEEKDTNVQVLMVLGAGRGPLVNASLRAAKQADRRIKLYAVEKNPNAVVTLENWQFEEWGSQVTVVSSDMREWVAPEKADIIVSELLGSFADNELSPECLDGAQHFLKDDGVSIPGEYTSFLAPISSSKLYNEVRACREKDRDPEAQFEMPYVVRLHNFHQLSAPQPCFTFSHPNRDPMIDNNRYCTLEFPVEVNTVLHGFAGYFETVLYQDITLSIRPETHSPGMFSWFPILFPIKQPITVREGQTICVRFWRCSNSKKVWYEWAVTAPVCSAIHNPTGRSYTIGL
T1 sequence (Q9BQA1 2-342 partner limits assumed): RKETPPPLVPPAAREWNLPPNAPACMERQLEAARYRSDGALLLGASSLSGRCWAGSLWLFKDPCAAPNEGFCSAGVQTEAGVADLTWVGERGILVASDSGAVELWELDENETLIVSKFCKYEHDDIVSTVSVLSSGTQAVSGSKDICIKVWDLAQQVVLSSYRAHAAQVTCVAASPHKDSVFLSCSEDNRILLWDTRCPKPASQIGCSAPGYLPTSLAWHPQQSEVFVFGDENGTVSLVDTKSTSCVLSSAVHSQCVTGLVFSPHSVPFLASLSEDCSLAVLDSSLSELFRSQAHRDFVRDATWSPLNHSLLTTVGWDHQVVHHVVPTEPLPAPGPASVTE

As a reminder, the IC50 is the concentration that gives 50% inhibition. A lower IC50 goes with inhibition by little substance. With `CN1CCC(Oc2ccc3c(c2)CCN(C[C@H](O)CN2CCc4ccccc4C2)C3=O)CC1` [Example 135, 2-[(2R)-3-(3,4-dihydro-1H-isoquinolin-2-yl)-2-hydroxy-propyl]-6-[(1-methyl-4-piperidyl)oxy]-3,4-dihydroisoquinolin-1-one], the concentration for half-maximal inhibition (IC50) in experiment [1] is 100 to 1000 nM. Moreover, in the experiment with SDMA levels in the tumor, the SDMA inhibition result is “+++ (+++: more than 70%)”.

`CC(=O)N1CCN(c2ccc3c(c2)C(C)(C)CN(C[C@H](O)CN2CCc4ccccc4C2)C3=O)CC1` [Example 104, 6-(4-acetylpiperazin-1-yl)-2-[(2R)-3-(3,4-dihydro-1H-isoquinolin-2-yl)-2-hydroxy-propyl]-4,4-dimethyl-3H-isoquinolin-1-one] had an IC50 in experiment [1] of 1 to 100 nM.

The molecule `CCN1CCC(Oc2ccc3c(c2)CCN(C[C@H](O)CN2CCc4ccccc4C2)C3=O)C1` (stereo partly drawn) [Example 134, 2-[(2R)-3-(3,4-dihydro-1H-isoquinolin-2-yl)-2-hydroxy-propyl]-6-(1-ethylpyrrolidin-3-yl)oxy-3,4-dihydroisoquinolin-1-one] yielded an IC50 in experiment [1] of 100 to 1000 nM.

For the molecule `O=C1c2ccc(C#CCO)cc2CCN1C[C@H](O)CN1CCc2ccccc2C1` [Example 137, 2-[(2R)-3-(3,4-dihydro-1H-isoquinolin-2-yl)-2-hydroxypropyl]-6-(3-hydroxyprop-1-ynyl)-3,4-dihydroisoquinolin-1-one], the IC50 in experiment [1] is 100 to 1000 nM.

In turn, `CC(=O)N1CCN(c2ccc3c(c2)CCN(C[C@H](O)CN2CCc4ccccc4C2)C3=O)C(=O)C1` [Example 86, 6-(4-acetyl-2-oxo-piperazin-1-yl)-2-[(2R)-3-(3,4-dihydro-1H-isoquinolin-2-yl)-2-hydroxy-propyl]-3,4-dihydroisoquinolin-1-one] gave an IC50 in experiment [1] of 100 to 1000 nM.

Molecule `CC(C)N1CCN(c2ccc3c(c2)CCN(C[C@H](O)CN2CCc4ccccc4C2)C3=O)CC1` [Example 64, [(2R)-3-(3,4-dihydro-1H-isoquinolin-2-yl)-2-hydroxy-propyl]-6-(4-isopropylpiperazin-1-yl)-3,4-dihydroisoquinolin-1-one] came in with an IC50 in experiment [1] of 1 to 100 nM.

Take `CN1CCC(Oc2ccc3c(c2)CCN(C[C@H](O)CN2CCc4ccccc4C2)C3=O)C1` (stereo partly drawn) [Example 133, 2-[(2R)-3-(3,4-dihydro-1H-isoquinolin-2-yl)-2-hydroxy-propyl]-6-(1-methylpyrrolidin-3-yl)oxy-3,4-dihydroisoquinolin-1-one]: the IC50 in experiment [1] is 1 to 100 nM.

For the molecule `O=C1c2ccc(-c3cccnc3)cc2CCN1C[C@H](O)CN1CCc2ccccc2C1` [Example 9, 2-[(2R)-3-(3,4-dihydro-1H-isoquinolin-2-yl)-2-hydroxy-propyl]-6-(3-pyridyl)-3,4-dihydroisoquinolin-1-one], the IC50 in experiment [1] lay in the range of 1 to 100 nM.

As to `CC(C)(C)OC(=O)N1CCN(c2ccc3c(c2)CCN(C[C@H](O)CN2CCc4ccccc4C2)C3=O)CC1` [Example 53, tert-butyl 4-[2-[(2R)-3-(3,4-dihydro-1H-isoquinolin-2-yl)-2-hydroxy-propyl]-1-oxo-3,4-dihydroisoquinolin-6-yl]piperazine-1-carboxylate], the IC50 in experiment [1] lay in the range of 1 to 100 nM.

In experiment [1], `CC(C)(O)CNc1ccc2c(c1)CCN(C[C@H](O)CN1CCc3ccccc3C1)C2=O` [Example 25, 2-[(2R)-3-(3,4-dihydro-1H-isoquinolin-2-yl)-2-hydroxy-propyl]-6-[(2-hydroxy-2-methyl-propyl)amino]-3,4-dihydroisoquinolin-1-one] displayed an IC50 of 1 to 100 nM.

Molecule `CN(C)CCOC1CCN(c2ccc3c(c2)CCN(C[C@H](O)CN2CCc4ccccc4C2)C3=O)CC1` [Example 119, 2-[(2R)-3-(3,4-dihydro-1H-isoquinolin-2-yl)-2-hydroxy-propyl]-6-[4-[2-(dimethylamino)ethoxy]-1-piperidyl]-3,4-dihydroisoquinolin-1-one] showed a half-maximal inhibitory concentration (IC50) in experiment [1] of 100 to 1000 nM.

In experiment [1], `CC(=O)N1CCCN(c2ccc3c(c2)CCN(C[C@H](O)CN2CCc4ccccc4C2)C3=O)CC1` [Example 80, 6-(4-acetyl-1,4-diazepan-1-yl)-2-[(2R)-3-(3,4-dihydro-1H-isoquinolin-2-yl)-2-hydroxy-propyl]-3,4-dihydroisoquinolin-1-one] yielded an IC50 of 1 to 100 nM.

In experiment [1], `O=C1c2ccc(NC3CCOC3)cc2CCN1C[C@H](O)CN1CCc2ccccc2C1` (stereo partly drawn) [Example 50, 2-[(2R)-3-(3,4-dihydro-1H-isoquinolin-2-yl)-2-hydroxy-propyl]-6-(tetrahydrofuran-3-ylamino)-3,4-dihydroisoquinolin-1-one] displayed an IC50 of 100 to 1000 nM.

For `C[C@H]1CN(c2ccc3c(c2)CCN(C[C@H](O)CN2CCc4ccccc4C2)C3=O)CCO1` [Example 47, 2-[(2R)-3-(3,4-dihydro-1H-isoquinolin-2-yl)-2-hydroxy-propyl]-6-[(2S)-2-methylmorpholin-4-yl]-3,4-dihydroisoquinolin-1-one], in experiment [1], the IC50 was in the range of 1 to 100 nM.

For the molecule `CS(=O)(=O)N1CCN(c2ccc3c(c2)CCN(C[C@H](O)CN2CCc4ccccc4C2)C3=O)CC1` [Example 59, 2-[(2R)-3-(3,4-dihydro-1H-isoquinolin-2-yl)-2-hydroxy-propyl]-6-(4-methylsulfonylpiperazin-1-yl)-3,4-dihydroisoquinolin-1-one], in experiment [1], the IC50 fell in the range of 100 to 1000 nM.

`O=C1c2ccc(Cl)nc2CCN1C[C@H](O)CN1CCc2ccccc2C1` [Example 75, 2-chloro-6-[(2R)-3-(3,4-dihydro-1H-isoquinolin-2-yl)-2-hydroxy-propyl]-7,8-dihydro-1,6-naphthyridin-5-one] displayed an IC50 in experiment [1] of 100 to 1000 nM.

In experiment [1], `O=C1c2ccc(-c3ccncc3)cc2CCN1C[C@H](O)CN1CCc2ccccc2C1` [Example 8, 2-[(2R)-3-(3,4-dihydro-1H-isoquinolin-2-yl)-2-hydroxy-propyl]-6-(4-pyridyl)-3,4-dihydroisoquinolin-1-one] gave an IC50 of 1 to 100 nM.

`CCOC(=O)N1CCN(c2ccc3c(c2)CCN(C[C@H](O)CN2CCc4ccccc4C2)C3=O)CC1` [Example 65, ethyl 4-[2-[(2R)-3-(3,4-dihydro-1H-isoquinolin-2-yl)-2-hydroxy-propyl]-1-oxo-3,4-dihydroisoquinolin-6-yl]piperazine-1-carboxylate]: in experiment [1], the IC50 was 1000 to 10000 nM.

Take `O=C1c2ccc(CN3CCOCC3)cc2CCN1C[C@H](O)CN1CCc2ccccc2C1` [Example 43, 2-[(2R)-3-(3,4-dihydro-1H-isoquinolin-2-yl)-2-hydroxy-propyl]-6-(morpholinomethyl)-3,4-dihydroisoquinolin-1-one]: the IC50 in experiment [1] lay in the range of 1000 to 10000 nM.

The molecule `CC(=O)N1CC2CC1CN2c1ccc2c(c1)CCN(C[C@H](O)CN1CCc3ccccc3C1)C2=O` (stereo partly drawn) [Example 81, 6-(5-acetyl-2,5-diazabicyclo[2.2.1]heptan-2-yl)-2-[(2R)-3-(3,4-dihydro-1H-isoquinolin-2-yl)-2-hydroxy-propyl]-3,4-dihydroisoquinolin-1-one] registered an IC50 in experiment [1] of 1 to 100 nM.

Consider `O=C1c2ccc(N3CCC3=O)cc2CCN1C[C@H](O)CN1CCc2ccccc2C1` [Example 20, 2-[(2R)-3-(3,4-dihydro-1H-isoquinolin-2-yl)-2-hydroxy-propyl]-6-(2-oxoazetidin-1-yl)-3,4-dihydroisoquinolin-1-one], for which, in experiment [1], the IC50 was 100 to 1000 nM.

For `O=C1c2ccc(NC3CCOCC3)cc2CCN1C[C@H](O)CN1CCc2ccccc2C1` [Example 5, 2-[(2R)-3-(3,4-dihydro-1H-isoquinolin-2-yl)-2-hydroxy-propyl]-6-(tetrahydropyran-4-ylamino)-3,4-dihydroisoquinolin-1-one], the IC50 in experiment [1] fell in the range of 1 to 100 nM.

For `O=C1c2ccc(N3CCNCC3)cc2CCN1C[C@H](O)CN1CCc2ccccc2C1` [Example 58, 2-[(2R)-3-(3,4-dihydro-1H-isoquinolin-2-yl)-2-hydroxy-propyl]-6-piperazin-1-yl-3,4-dihydroisoquinolin-1-one], in experiment [1], the IC50 fell in the range of 1 to 100 nM.

In the case of `CC(C)C(=O)N1CCN(c2ccc3c(c2)CCN(C[C@H](O)CN2CCc4ccccc4C2)C3=O)CC1` [Example 70, 2-[(2R)-3-(3,4-dihydro-1H-isoquinolin-2-yl)-2-hydroxy-propyl]-6-[4-(2-methylpropanoyl)piperazin-1-yl]-3,4-dihydroisoquinolin-1-one], the IC50 in experiment [1] is 1 to 100 nM.

`CC1CC(C)CN(c2ccc3c(c2)CCN(C[C@H](O)CN2CCc4ccccc4C2)C3=O)C1` (stereo partly drawn) [Example 28, 2-[(2R)-3-(3,4-dihydro-1H-isoquinolin-2-yl)-2-hydroxy-propyl]-6-(3,5-dimethyl-1-piperidyl)-3,4-dihydroisoquinolin-1-one] returned an IC50 in experiment [1] of 100 to 1000 nM.
